Measurements as given in the supplement of paper PMC10307832.

Tests used:
Assay in all cases: relative viability (nuclei count vs DMSO), 5 days (fraction); higher = more cells survive
R406 + Lapatinib = compound: COc1cc(Nc2ncc(F)c(Nc3ccc4c(n3)NC(=O)C(C)(C)O4)n2)cc(OC)c1OC [R406] + CS(=O)(=O)CCNCc1ccc(-c2ccc3ncnc(Nc4ccc(OCc5cccc(F)c5)c(Cl)c4)c3c2)o1 [Lapatinib] (partner 2 µM)
In short: (§1)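 For relative viability, nuclei counts in treated wells were divided by those in vehicle wells. Lung cancer cell lines had been pin-tool dosed in 1536-well plates the day after seeding and cultured for 5 days, then fixed and stained in one step (final 0.05% Triton X-100, 1% formaldehyde, 1 ug/ml Hoechst) and imaged at 4×. Doses were one drug alone or a fixed anchor-drug dose plus five library-drug doses (not always all listed) in √10 steps, and values are duplicate-plate medians.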

R406 + Linsitinib = compound: COc1cc(Nc2ncc(F)c(Nc3ccc4c(n3)NC(=O)C(C)(C)O4)n2)cc(OC)c1OC [R406] + C[C@]1(O)C[C@@H](c2nc(-c3ccc4ccc(-c5ccccc5)nc4c3)c3c(N)nccn32)C1 [Linsitinib] (partner 1 µM)
In short: as §1

Daporinad + Trametinib = compound: O=C(/C=C/c1cccnc1)NCCCCC1CCN(C(=O)c2ccccc2)CC1 [Daporinad] + CC(=O)Nc1cccc(-n2c(=O)n(C3CC3)c(=O)c3c(Nc4ccc(I)cc4F)n(C)c(=O)c(C)c32)c1 [Trametinib] (partner 0.02 µM)
In short: as §1

Daporinad + Vorinostat = compound: O=C(/C=C/c1cccnc1)NCCCCC1CCN(C(=O)c2ccccc2)CC1 [Daporinad] + O=C(CCCCCCC(=O)Nc1ccccc1)NO [Vorinostat] (partner 1 µM)
In short: as §1

**Q.** How did the relative viability (R406 + Lapatinib; first compound 0.08 µM) turn out when UMC-11 was run?
**A.** 0.952

**Q.** And the relative viability (R406 + Lapatinib; first compound 0.253 µM)?
**A.** 1.08

**Q.** And the relative viability (R406 + Lapatinib; first compound 0.8 µM)?
**A.** 1.06

**Q.** And the relative viability (R406 + Lapatinib; first compound 2.53 µM)?
**A.** 0.241

**Q.** And the relative viability (R406 + Lapatinib; first compound 8 µM)?
**A.** 0.378

**Q.** What about the relative viability (R406 + Linsitinib; first compound 0.08 µM) of the same cell line?
**A.** 1.1

**Q.** And the relative viability (R406 + Linsitinib; first compound 0.253 µM)?
**A.** 1.1

**Q.** And the relative viability (R406 + Linsitinib; first compound 0.8 µM)?
**A.** 1.16

**Q.** And the relative viability (R406 + Linsitinib; first compound 2.53 µM)?
**A.** 0.935

**Q.** And the relative viability (R406 + Linsitinib; first compound 8 µM)?
**A.** 0.474

**Q.** And the relative viability (Daporinad + Trametinib; first compound 0.0005 µM)?
**A.** 0.645

**Q.** What about the relative viability (Daporinad + Trametinib; first compound 0.001581 µM) of the same cell line?
**A.** 0.926

**Q.** What about the relative viability (Daporinad + Trametinib; first compound 0.005 µM) of the same cell line?
**A.** 0.775

**Q.** What about the relative viability (Daporinad + Trametinib; first compound 0.01581 µM) of the same cell line?
**A.** 1.14

**Q.** What about the relative viability (Daporinad + Vorinostat; first compound 0.0005 µM) of the same cell line?
**A.** 0.319

**Q.** And the relative viability (Daporinad + Vorinostat; first compound 0.001581 µM)?
**A.** 0.384

**Q.** What about the relative viability (Daporinad + Vorinostat; first compound 0.005 µM) of the same cell line?
**A.** 0.426

**Q.** What about the relative viability (Daporinad + Vorinostat; first compound 0.01581 µM) of the same cell line?
**A.** 0.413
